Source: patent US7456225B1, “Liver protection compounds of the cyclohexenone type from Antrodia camphorata” (Golden Biotechnology Corporation, priority 2007, dated 2008)
Marks after values point to notes of the source that are not given here.

Tested on: CCl4-induced liver fibrosis in rats
Test: Histological evaluation of liver fibrosis (Masson's trichrome, 0-4 scale)
Format: in vivo, Sprague-Dawley (SD) rats
Settings: for Liver fibrosis score: 0-4 scale, CCl4-treated rats, 8 weeks; for Liver fibrosis +, counts of pathological rats: level 1, portal fibrosis without septa; for Liver fibrosis ++, counts of pathological rats: level 2, incomplete septa; for Liver fibrosis +++, counts of pathological rats: level 3, intact septal fibrosis and bridging; for Liver fibrosis ++++, counts of pathological rats: level 4, complete thick septa, definite cirrhosis
Method: The animal model was performed with five-week-old Sprague-Dawley (SD) rats purchased from BioLasco Taiwan Co., Ltd. Healthy rats weighing 220-270 g were chosen for experiment after observing for 2 weeks in the laboratory animal room. The rats were randomly divided into 6 groups (12 rats/group): normal (gp. A); control groups including model control (gp. B) and positive control (gp. C, animals receiving silymarin); treatment groups including animals receiving 300 mg/kg of cyclohexenone (gp. D), 1000 mg/kg of cyclohexenone (gp. E), and 3000 mg/kg of cyclohexenone (gp. F), as indicated in Table 1. Only normal group was not poisoned with CCl4. The body weights were recorded to calculate the dosage. […] It helps to remove toxins from liver cells by either neutralizing the toxicity of toxic compounds or competing with the binding sites in liver. It is a potent antioxidant, protects the liver from free radicals. It has been widely studied for treating various types of liver injury in animals and clinical trials. The beneficial effects on liver protection have made silymarin a good medicine for liver diseases and a drug in positive control group for the animal model of liver injury.
Rats in normal group (group A) were fed with corn oil (Sigma chemical co.) by means of stomach tubes. Carbon tetrachloride (Shimakyu, Osaka, Japan) was administered to groups B to F via stomach tubes twice weekly (every Tuesday and Thursday afternoon) for 8 weeks, at a dose of 2 ml/kg of body weight, diluted with corn oil. Silymarin was prepared with saline in an amount of 200 mg/kg of body weight and was fed to rats of group C via a stomach tube. Cyclohexenone prepared from example 1 was mixed with saline, and fed in the amounts of 300 mg/kg, 1000 mg/kg and 3000 mg/kg of body weight to rats of group D to F via stomach tubes. The total feeding volume was estimated in the ratio of 10 ml/kg of body weight to groups C to F five days a week (every morning) for 8 weeks. The body weights of rats and the amounts of food intake in rats for each group were shown in FIG. 1 and FIG. 2, respectively.
The pathological changes of the liver surface were examined with naked eyes when the liver was taken out from rats, and then tissue sections were made. Half of each liver lobe was stored at −80° C. for antioxidant enzyme assay to follow up. The rest of liver tissues were fixed in 10% formalin for one week, embedded in paraffin cut into 2 μm sections, and stained with Hematoxyline-eosin (H&E) to visualize the lipid deposition, inflammation, cell necrosis and fibrosis, or stained with Masson's trichromic solution to visualize extracellular matrix and collagen fibers for liver fibrosis development. The pathological changes of liver injury were evaluated under light microscope (Opticphot-2, Nikon, Tokyo, Japan) after stained with the abovementioned solution.
Liver fibrosis was evaluated semiquantitatively according to the scoring methods from Gabriele et al. (Gabriele, B. 1997. Silymarin retards collagen accumulation in early and advanced biliary fibrosis secondary to complete bile duct obliteration in rats. Hepatology 26: 643-649) and Wang et al. (Wang, G. S., Eriksson, L. C., Xia, L., Olsson, J. and Stal, P. 1999. Dietary iron overload inhibits carbon tetrachloride-induced promotion in chemical hepatocarcinogenesis: effects on cell proliferation, apoptosis, and antioxidation. J. Hepatol. 30(4):689-98.). Fibrosis was staged on a 0-4 scale: level 0, no fibrosis, normal liver tissue; level 1, proliferation of collagen, portal fibrosis without septa (proliferation of radiating fiber in central vein or periportal region); level 2, incomplete septa between central vein and periportal region (septa without bridging); level 3, intact septal fibrosis and bridging, many nodules in liver, the septa is thin; and level 4, complete thick septa, definite cirrhosis. The results are shown in FIG. 3 to FIG. 5, and Table 3.

COC1=C(OC)C(O)C(C/C=C(\C)CC/C=C(\C)CCC=C(C)C)C(C)C1=O (centres unmarked) [Cyclohexenone from Antrodia camphorata, 4-hydroxy-2,3-dimethoxy-6-methyl-5(3,7,11-trimethyl-dodeca-2,6,10-trienyl)-cyclohex-2-enone]
Liver fibrosis score (cyclohexenone 300 mg/kg): 1.8*^a
Liver fibrosis score (cyclohexenone 300 mg/kg, listed as cyclohexenone from Antrodia camphorata): 1.8
Liver fibrosis score (cyclohexenone 1000 mg/kg): 2.0*^a
Liver fibrosis score (cyclohexenone 3000 mg/kg): 2.5*
Liver fibrosis −, counts of pathological rats (level 0, no fibrosis, cyclohexenone 1000 mg/kg): 2
Liver fibrosis +, counts of pathological rats (cyclohexenone 300 mg/kg): 6
Liver fibrosis +, counts of pathological rats (cyclohexenone 1000 mg/kg): 1
Liver fibrosis +, counts of pathological rats (cyclohexenone 3000 mg/kg): 2
Liver fibrosis ++, counts of pathological rats (cyclohexenone 300 mg/kg): 4
Liver fibrosis ++, counts of pathological rats (cyclohexenone 1000 mg/kg): 4
Liver fibrosis ++, counts of pathological rats (cyclohexenone 3000 mg/kg): 4
Liver fibrosis +++, counts of pathological rats (cyclohexenone 300 mg/kg): 1
Liver fibrosis +++, counts of pathological rats (cyclohexenone 1000 mg/kg): 3
Liver fibrosis +++, counts of pathological rats (cyclohexenone 3000 mg/kg): 3
Liver fibrosis ++++, counts of pathological rats (cyclohexenone 300 mg/kg): 1
Liver fibrosis ++++, counts of pathological rats (cyclohexenone 1000 mg/kg): 1
Liver fibrosis ++++, counts of pathological rats (cyclohexenone 3000 mg/kg): 2
